SMILES strings stand for the structures.

This assay is described as follows: DPPH radical scavenging activity after 180 mins. The format is functional. (In general: The DPPH test is a chemical assay of radical scavenging.)
As for `CC1=CC[C@@H](C(C)(C)O[C@@H]2O[C@H](CO[C@@H]3O[C@@H](CO)[C@H](O)[C@H]3OC(=O)c3cc(O)c(O)c(O)c3)[C@@H](O)[C@H](O)[C@H]2O)CC1`, the IC50 (usually the point on the concentration scale where inhibition reaches its midpoint) was 10.5 µM.
Under `O=C(O)c1cc(O)c(O)c(O)c1` [GALLIC ACID] stands 8 µM.
The result for `COc1cc(/C=C/C(=O)O)cc(OC)c1O` [SINAPINATE] reads 25.7 µM; that for `C=CCc1cc(OC)c(O)c(O[C@@H]2O[C@H](COC(=O)/C=C/c3cc(OC)c(O)c(OC)c3)[C@@H](O)[C@H](O)[C@H]2O)c1`, 15 µM.
The result for `CC1=CC[C@H](C(C)(C)O[C@@H]2O[C@H](CO[C@@H]3O[C@@H](CO)[C@H](O)[C@H]3OC(=O)c3cc(O)c(O)c(O)c3)[C@@H](O)[C@H](O)[C@H]2O)CC1` reads 11.6 µM.
For the molecule `O=C(O)C[C@H]1CCC(=O)[C@@H]1C/C=C\CCO[C@@H]1O[C@H](COC(=O)c2cc(O)c(O)c(O)c2)[C@@H](O)[C@H](O)[C@H]1O`, the half-maximal inhibitory concentration (IC50) was found to be 11.2 µM.
As to `C=CCc1ccc(O)c(OC)c1` [EUGENOL], the IC50 was 27.5 µM.

The record behind these values is ChEMBL document CHEMBL1149863, “Phenolic glycosides from berries of Pimenta dioica” (J Nat Prod, 2008).
